Reference: patent US11000033B2, “Ketone or oxime compound, and herbicide” (NISSAN CHEMICAL CORPORATION, priority 2014, dated 2021)

Experiments:
Type in all cases: in vivo
Digitaria ciliaris = assay: Test Example 5: herbicidal effect by foliage application, plastic box (symbol F); conditions: 320 g/ha, 3 weeks after application
In short: (§1)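 After sowing into sterilized diluvial soil and growing two weeks under glass at 25° C. to 30° C., seedlings receive a uniform foliar spray of diluted emulsion. Damage is judged visually three weeks on.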

rice plant = assay: Test Example 5: effect on crop by foliage application, plastic box (symbol b); conditions: 320 g/ha, 3 weeks after application
In short: (§2)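 Crop and weed seeds sown in spots in sterilized diluvial soil in plastic boxes and covered with about 1.5 cm soil. Plants raised in a greenhouse at 25° C. to 30° C. for foliar application.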

Apera spica-venti = assay: Test Example 5: herbicidal effect by foliage application, plastic box (symbol L); conditions: 320 g/ha, 3 weeks after application
In short: as §1

[1] = tested on: Echinochloa oryzacola Vasing.; assay: Test Example 1: herbicidal activity, application before weed generation in submerged conditions (symbol A); conditions: application herbicide amount 320 g/ha
In short: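 Compound emulsion was diluted to a set herbicide amount and applied to the water surface on the sowing day, into submerged (4 cm) alluvial-soil pots sown with mixed weed seeds and transplanted 2.5-leaf rice. Pots were held in a 25–30 °C greenhouse, and weeds were scored 0–5 by herbicidal ratio after 3 weeks.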

[2] = tested on: Echinochloa crus-galli var. crus-galli; assay: Test Example 4: herbicidal effect by soil treatment (symbol H)
In short: (§3)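 Seeds were sown in sterilized diluvial soil, covered with about 1.5 cm of soil, and the soil surface was sprayed with a water-diluted emulsion of the compound at a predetermined rate. Plants grew in a greenhouse at 25° C. to 30° C.; effects were scored visually 3 weeks after application.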

Stellaria media [3] = assay: Test Example 5: herbicidal effect by foliage application, plastic box (symbol P); conditions: 320 g/ha, 3 weeks after application
In short: as §1

Abutilon theophrasti = assay: Test Example 4: herbicidal effect by soil treatment (symbol M)
In short: as §3

[4] = tested on: Echinochloa oryzacola Vasing.; assay: Test Example 2: herbicidal activity, application during weed generation in submerged conditions (symbol A); conditions: Table 23; application herbicide amount 320 g/ha; grade 0-5 by criteria of Test Example 1
In short: (§4)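 Seeds sown in flooded alluvial soil (4 cm water) were grown in a 25-30° C greenhouse. At the one- to two-leaf stage, diluted emulsion of compound was applied to the water surface at a predetermined rate. Effect was scored 3 weeks later.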

[5] = tested on: directly sowed rice plant; assay: Test Example 3: effect on crop by foliage application, Wagner pot (symbol b); conditions: application herbicide amount 320 g/ha
In short: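 Greenhouse culture at 25–30 °C of seeded rice, Cyperus difformis, Leptochloa chinensis and Echinochloa crus-galli var. crus-galli, in alluvial soil held under 0.1–0.5 cm of water in a Wagner pot.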

Stellaria media [6] = assay: Test Example 4: herbicidal effect by soil treatment (symbol P)
In short: as §3

rapeseed = assay: Test Example 5: effect on crop by foliage application, plastic box (symbol g); conditions: 320 g/ha, 3 weeks after application
In short: as §2

Avena fatua = assay: Test Example 5: herbicidal effect by foliage application, plastic box (symbol I); conditions: 320 g/ha, 3 weeks after application
In short: as §1

Cyperus difformis = assay: Test Example 3: herbicidal effect by foliage application, Wagner pot (symbol E); conditions: application herbicide amount 320 g/ha
In short: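 Plants sown in submerged alluvial soil (water depth 0.1–0.5 cm) in a 25–30 °C greenhouse and grown 14 days. An emulsion of the compound diluted in water to a set herbicide amount was sprayed uniformly on foliage. Effect on each plant scored 3 weeks after application.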

Monochoria vaginalis = assay: Test Example 2: herbicidal activity, application during weed generation in submerged conditions (symbol C); conditions: Table 23; application herbicide amount 320 g/ha; grade 0-5 by criteria of Test Example 1
In short: as §4

[7] = application herbicide amount 320 g/ha

Compound	Herbicidal effect grade, A: Echinochloa oryzacola Vasing. [1]	Herbicidal effect grade, A: Echinochloa oryzacola Vasing. [4]	effect on crop b (directly sowed rice plant), grade 0-5 [5]	F: Digitaria ciliaris, herbicidal effect grade (Digitaria ciliaris)	b: directly sowed rice plant, effect on crop grade (rice plant)	herbicidal effect on E, grade 0-5 (Cyperus difformis)	L: Apera spica-venti, herbicidal effect grade (Apera spica-venti)	H: Echinochloa crus-galli var. crus-galli, herbicidal effect grade [2, 7]	P: Stellaria media, herbicidal effect grade (Stellaria media [3])	M: Abutilon theophrasti, herbicidal effect grade (Abutilon theophrasti; [7])	P: Stellaria media, herbicidal effect grade (Stellaria media [6]; [7])	g: rapeseed, effect on crop grade (rapeseed)	I: Avena fatua, herbicidal effect grade (Avena fatua)	also measured
CON=C(C)CC1CC(OS(=O)(=O)CCCCl)=C(c2c(C)cc(C)cc2C)C1=O (stereo not shown) [1-142]	5 (Herbicidal ratio of 90% or more (almost completely withered))	5 (Herbicidal ratio of 90% or more (almost completely withered))	5 (Herbicidal ratio of 90% or more (almost completely withered))	–	–	–	–	–	–	–	–	–	–	F: Digitaria ciliaris, herbicidal effect (criteria 0-5) (Digitaria ciliaris): 5 (Herbicidal ratio of 90% or more (almost completely withered)); b: directly sowed rice plant, effect on crop (criteria 0-5) (rice plant): 5 (Herbicidal ratio of 90% or more (almost completely withered)); L: Apera spica-venti, herbicidal effect (criteria 0-5) (Apera spica-venti): 5 (Herbicidal ratio of 90% or more (almost completely withered)); H: Echinochloa crus-galli var. crus-galli, herbicidal effect grade ([2]; 320 g/ha): 5 (Herbicidal ratio of 90% or more (almost completely withered)); P: Stellaria media, herbicidal effect (criteria 0-5) (Stellaria media [3]): 3 (Herbicidal ratio of 40% or higher and lower than 70%); M: Abutilon theophrasti, herbicidal effect grade (Abutilon theophrasti; 320 g/ha): 0 (Herbicidal ratio of 5% or lower (almost no effect)); P: Stellaria media, herbicidal effect grade (Stellaria media [6]; 320 g/ha): 0 (Herbicidal ratio of 5% or lower (almost no effect)); g: rapeseed, effect on crop (criteria 0-5) (rapeseed): 4 (Herbicidal ratio of 70% or higher and lower than 90%); I: Avena fatua, herbicidal effect (criteria 0-5) (Avena fatua): 5 (Herbicidal ratio of 90% or more (almost completely withered))
CON=C(C)CC1CC(O)=C(c2c(C)cc(C(=O)OC)cc2C)C1=O (stereo not shown) [6-023]	0 (Herbicidal ratio of 5% or lower (almost no effect))	–	5 (Herbicidal ratio of 90% or more (almost completely withered))	5 (Herbicidal ratio of 90% or more (almost completely withered))	5 (Herbicidal ratio of 90% or more (almost completely withered))	4 (Herbicidal ratio of 70% or higher and lower than 90%)	4 (Herbicidal ratio of 70% or higher and lower than 90%)	0 (Herbicidal ratio of 5% or lower (almost no effect))	0 (Herbicidal ratio of 5% or lower (almost no effect))	0 (Herbicidal ratio of 5% or lower (almost no effect))	0 (Herbicidal ratio of 5% or lower (almost no effect))	3 (Herbicidal ratio of 40% or higher and lower than 70%)	5 (Herbicidal ratio of 90% or more (almost completely withered))	–
Cc1cc(C)c(C2=C(O)CC(CC(=O)CC3CC3)C2=O)c(C)c1 (stereo not shown) [2-026]	3 (Herbicidal ratio of 40% or higher and lower than 70%)	4 (Herbicidal ratio of 70% or higher and lower than 90%)	5 (Herbicidal ratio of 90% or more (almost completely withered))	4 (Herbicidal ratio of 70% or higher and lower than 90%)	5 (Herbicidal ratio of 90% or more (almost completely withered))	5 (Herbicidal ratio of 90% or more (almost completely withered))	3 (Herbicidal ratio of 40% or higher and lower than 70%)	5 (Herbicidal ratio of 90% or more (almost completely withered))	0 (Herbicidal ratio of 5% or lower (almost no effect))	0 (Herbicidal ratio of 5% or lower (almost no effect))	–	3 (Herbicidal ratio of 40% or higher and lower than 70%)	4 (Herbicidal ratio of 70% or higher and lower than 90%)	Herbicidal effect grade, C: Monochoria vaginalis (Monochoria vaginalis): 0 (Herbicidal ratio of 5% or lower (almost no effect))
CON=C(C)CC1CC(O)=C(c2c(C)cc(-n3cc(Cl)cn3)cc2C)C1=O (mixture of isomers) [6-004]	5 (Herbicidal ratio of 90% or more (almost completely withered))	5 (Herbicidal ratio of 90% or more (almost completely withered))	5 (Herbicidal ratio of 90% or more (almost completely withered))	5 (Herbicidal ratio of 90% or more (almost completely withered))	5 (Herbicidal ratio of 90% or more (almost completely withered))	5 (Herbicidal ratio of 90% or more (almost completely withered))	5 (Herbicidal ratio of 90% or more (almost completely withered))	5 (Herbicidal ratio of 90% or more (almost completely withered))	–	0 (Herbicidal ratio of 5% or lower (almost no effect))	0 (Herbicidal ratio of 5% or lower (almost no effect))	4 (Herbicidal ratio of 70% or higher and lower than 90%)	4 (Herbicidal ratio of 70% or higher and lower than 90%)	–
CCOC(=O)C(C(=O)CC1CC1)C1CC(O)=C(c2c(C)cc(C)cc2C)C1=O (stereo not shown) [2-025]	3 (Herbicidal ratio of 40% or higher and lower than 70%)	–	4 (Herbicidal ratio of 70% or higher and lower than 90%)	4 (Herbicidal ratio of 70% or higher and lower than 90%)	4 (Herbicidal ratio of 70% or higher and lower than 90%)	0 (Herbicidal ratio of 5% or lower (almost no effect))	3 (Herbicidal ratio of 40% or higher and lower than 70%)	4 (Herbicidal ratio of 70% or higher and lower than 90%)	0 (Herbicidal ratio of 5% or lower (almost no effect))	0 (Herbicidal ratio of 5% or lower (almost no effect))	0 (Herbicidal ratio of 5% or lower (almost no effect))	3 (Herbicidal ratio of 40% or higher and lower than 70%)	0 (Herbicidal ratio of 5% or lower (almost no effect))	–
CON=C(C)CC1CC(O)=C(c2c(C)cc(C(C)=O)cc2C)C1=O (stereo not shown) [6-026]	1 (Herbicidal ratio of 5% or higher and lower than 20%)	–	5 (Herbicidal ratio of 90% or more (almost completely withered))	5 (Herbicidal ratio of 90% or more (almost completely withered))	5 (Herbicidal ratio of 90% or more (almost completely withered))	5 (Herbicidal ratio of 90% or more (almost completely withered))	3 (Herbicidal ratio of 40% or higher and lower than 70%)	1 (Herbicidal ratio of 5% or higher and lower than 20%)	0 (Herbicidal ratio of 5% or lower (almost no effect))	0 (Herbicidal ratio of 5% or lower (almost no effect))	0 (Herbicidal ratio of 5% or lower (almost no effect))	3 (Herbicidal ratio of 40% or higher and lower than 70%)	5 (Herbicidal ratio of 90% or more (almost completely withered))	–
